The results in this text go back to ChEMBL document CHEMBL1135328, “Structure-activity relationship of biaryl acylsulfonamide analogues on the human EP(3) prostanoid receptor” (Bioorg Med Chem Lett, 2002).

The structures appear in SMILES notation.

The target in test [1] is T1, Prostaglandin E2 receptor EP3 subtype (Homo sapiens, UniProt P43115).
T1 sequence (P43115 whole entry): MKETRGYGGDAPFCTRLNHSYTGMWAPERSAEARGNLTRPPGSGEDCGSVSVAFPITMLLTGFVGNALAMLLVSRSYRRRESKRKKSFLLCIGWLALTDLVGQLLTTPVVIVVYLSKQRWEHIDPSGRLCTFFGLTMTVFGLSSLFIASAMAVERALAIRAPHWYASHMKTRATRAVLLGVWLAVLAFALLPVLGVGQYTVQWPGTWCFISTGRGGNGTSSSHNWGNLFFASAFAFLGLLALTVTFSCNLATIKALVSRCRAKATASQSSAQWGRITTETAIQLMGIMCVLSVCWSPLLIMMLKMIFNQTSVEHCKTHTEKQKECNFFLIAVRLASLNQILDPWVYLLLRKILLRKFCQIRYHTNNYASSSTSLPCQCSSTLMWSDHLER
Briefly: Binding affinity at human Prostanoid EP3 receptor.

Test [2] concerns the target Prostaglandin E2 receptor EP4 subtype (Homo sapiens, UniProt P35408). In words: Binding affinity at human Prostanoid EP4 receptor.
In test [3] the target is T2, Prostaglandin E2 receptor EP1 subtype (Homo sapiens, UniProt P34995).
T2 sequence (P34995 whole entry): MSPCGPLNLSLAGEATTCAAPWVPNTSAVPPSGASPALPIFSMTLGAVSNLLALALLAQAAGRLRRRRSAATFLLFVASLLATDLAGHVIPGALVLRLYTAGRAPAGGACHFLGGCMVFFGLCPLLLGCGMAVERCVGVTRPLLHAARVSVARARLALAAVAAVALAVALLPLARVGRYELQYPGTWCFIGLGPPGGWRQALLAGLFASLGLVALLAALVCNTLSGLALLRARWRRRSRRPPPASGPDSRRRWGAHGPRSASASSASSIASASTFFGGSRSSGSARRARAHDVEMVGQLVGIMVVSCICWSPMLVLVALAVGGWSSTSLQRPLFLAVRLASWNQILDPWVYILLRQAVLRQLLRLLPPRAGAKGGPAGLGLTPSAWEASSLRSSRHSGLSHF
In words: Binding affinity at human Prostanoid EP1 receptor.

Test [4] deals with Prostaglandin E2 receptor EP2 subtype (Homo sapiens, UniProt P43116). In words: Binding affinity at human Prostanoid EP2 receptor.
Test [5] addresses Prostaglandin F2-alpha receptor (Homo sapiens, UniProt P43088). In words: Inhibitory constant against Prostanoid FP receptor.
In test [6] the target is Prostacyclin receptor (Homo sapiens, UniProt P43119). In words: Inhibitory constant against Prostanoid IP receptor.
Test [7] addresses T3, Prostaglandin D2 receptor (Homo sapiens, UniProt Q13258).
T3 sequence (Q13258 whole entry): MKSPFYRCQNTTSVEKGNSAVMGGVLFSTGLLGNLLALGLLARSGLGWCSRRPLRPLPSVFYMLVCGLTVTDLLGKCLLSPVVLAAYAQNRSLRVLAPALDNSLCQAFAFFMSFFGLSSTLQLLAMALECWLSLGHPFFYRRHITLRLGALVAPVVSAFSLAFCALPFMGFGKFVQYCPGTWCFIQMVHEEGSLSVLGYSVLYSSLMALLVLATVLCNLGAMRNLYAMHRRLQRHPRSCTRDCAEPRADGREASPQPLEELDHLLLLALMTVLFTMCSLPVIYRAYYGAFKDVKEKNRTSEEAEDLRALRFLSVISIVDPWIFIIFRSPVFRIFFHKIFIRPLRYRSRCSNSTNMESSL
In words: Inhibitory constant against Prostanoid DP receptor.

Chain of Prostaglandin E2 receptor EP4 subtype (P35408 whole entry): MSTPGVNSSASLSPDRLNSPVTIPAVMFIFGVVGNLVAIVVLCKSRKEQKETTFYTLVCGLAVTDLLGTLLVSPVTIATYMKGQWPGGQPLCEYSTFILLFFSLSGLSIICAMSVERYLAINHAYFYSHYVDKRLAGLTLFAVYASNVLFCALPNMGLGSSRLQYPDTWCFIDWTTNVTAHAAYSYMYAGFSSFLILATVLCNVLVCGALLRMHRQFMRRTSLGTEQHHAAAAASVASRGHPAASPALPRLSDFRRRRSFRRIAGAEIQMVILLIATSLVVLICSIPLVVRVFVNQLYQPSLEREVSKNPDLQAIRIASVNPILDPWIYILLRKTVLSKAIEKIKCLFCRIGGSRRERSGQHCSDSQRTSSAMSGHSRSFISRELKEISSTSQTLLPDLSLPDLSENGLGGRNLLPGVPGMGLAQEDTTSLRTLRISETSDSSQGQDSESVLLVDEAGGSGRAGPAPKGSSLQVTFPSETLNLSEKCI
Chain of Prostaglandin E2 receptor EP2 subtype (P43116 whole entry): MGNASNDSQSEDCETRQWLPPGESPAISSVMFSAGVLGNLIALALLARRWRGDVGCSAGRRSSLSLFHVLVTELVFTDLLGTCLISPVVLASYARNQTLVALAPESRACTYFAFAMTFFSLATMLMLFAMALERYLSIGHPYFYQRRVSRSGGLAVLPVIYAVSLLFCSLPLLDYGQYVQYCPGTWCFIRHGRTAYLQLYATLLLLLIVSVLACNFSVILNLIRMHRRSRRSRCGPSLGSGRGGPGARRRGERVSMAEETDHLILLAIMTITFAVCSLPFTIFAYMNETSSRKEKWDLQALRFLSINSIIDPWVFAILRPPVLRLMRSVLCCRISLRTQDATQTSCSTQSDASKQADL
Chain of Prostacyclin receptor (P43119 whole entry): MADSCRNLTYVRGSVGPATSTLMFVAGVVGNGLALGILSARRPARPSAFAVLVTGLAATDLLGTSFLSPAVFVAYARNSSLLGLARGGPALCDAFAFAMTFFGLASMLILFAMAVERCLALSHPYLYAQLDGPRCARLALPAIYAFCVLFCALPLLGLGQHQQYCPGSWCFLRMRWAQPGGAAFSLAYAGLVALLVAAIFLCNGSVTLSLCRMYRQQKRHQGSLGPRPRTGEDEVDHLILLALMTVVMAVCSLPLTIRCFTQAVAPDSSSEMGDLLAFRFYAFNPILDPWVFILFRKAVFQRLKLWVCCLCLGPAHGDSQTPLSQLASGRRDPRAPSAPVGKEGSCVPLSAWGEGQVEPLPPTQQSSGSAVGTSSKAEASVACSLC
Chain of Prostaglandin F2-alpha receptor (P43088 whole entry): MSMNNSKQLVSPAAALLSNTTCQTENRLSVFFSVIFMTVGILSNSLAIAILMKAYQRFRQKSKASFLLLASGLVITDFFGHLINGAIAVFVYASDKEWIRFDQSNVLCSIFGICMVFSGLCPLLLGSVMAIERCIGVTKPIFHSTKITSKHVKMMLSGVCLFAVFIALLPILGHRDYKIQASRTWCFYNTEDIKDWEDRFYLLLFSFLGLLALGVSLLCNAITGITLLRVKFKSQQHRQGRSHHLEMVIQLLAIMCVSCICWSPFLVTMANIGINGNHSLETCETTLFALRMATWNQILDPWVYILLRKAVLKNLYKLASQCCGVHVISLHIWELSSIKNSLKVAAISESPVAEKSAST

Regarding `CS(=O)(=O)c1cccc(-c2ccccc2CCC(=O)NS(=O)(=O)c2cccs2)c1`, the inhibition constant (Ki) (in general, the dissociation constant of the complex between target and ligand, obtained from inhibition or displacement) in test [1] was 5.9 µM; in test [2], above 100 µM; in test [3] it was above 100 µM; in test [4], above 100 µM.

For the compound `c1ccc(CCSCc2ccc(-c3ccccc3CCc3nnn[nH]3)cc2)cc1`, the Ki in test [1] worked out at 1 µM; in test [2], 2.6 µM; in test [3], 4.9 µM; in test [4], 0.063 µM.

In the case of `O=C(/C=C/c1ccccc1-c1ccc(Cl)c(Cl)c1)NS(=O)(=O)c1cccs1`, the Ki in test [5] was determined as 17 µM; in test [1], 0.025 µM; in test [6], 7.3 µM; in test [2], 3.7 µM; in test [3], 8.2 µM; in test [7], 0.83 µM. Also, the affinity in test [4] corresponds to a Ki of 27 µM.

For the compound `Cc1cccc(OCCCOc2ccc(-c3ccccc3COC(=O)NS(=O)(=O)c3cccs3)cc2)c1`, the inhibitory constant (Ki) in test [1] was found to be 0.12 µM; in test [2], 0.73 µM; in test [3] it was 2.8 µM; in test [4] it was 2.1 µM.

Consider `CCCCc1nn(-c2ccccc2C(F)(F)F)c(=O)n1Cc1ccc(-c2ccccc2S(=O)(=O)NC(=O)c2cccs2)cc1`, for which the Ki was 7 µM in test [1], 0.046 µM in test [2], above 10 µM in test [3] and above 10 µM in test [4].

Regarding `O=C(/C=C/c1ccccc1-c1cccc(/C=C/c2ccc3ccc(Cl)cc3n2)c1)NS(=O)(=O)c1cccs1`, the Ki in test [1] turned out to be 0.11 µM; in test [2], 28 µM; in test [3] it was 41 µM; in test [4] it was 70 µM.

With `O=C(CCc1ccccc1-c1ccc(CSCCc2ccccc2)cc1)NS(=O)(=O)c1cccs1`, the Ki amounted to 0.046 µM in test [1], 1.1 µM in test [2], 1.7 µM in test [3] and 2.7 µM in test [4].

Take `O=C(CCc1ccccc1-c1cccc(CSCCc2ccccc2)c1)NS(=O)(=O)c1cccs1`: the Ki in test [1] amounted to 0.027 µM; in test [2], 1 µM; in test [3], 0.82 µM; in test [4], 2 µM.

On to `O=C(CCCc1ccccc1-c1ccc(CSCCc2ccccc2)cc1)NS(=O)(=O)c1cccs1`, for which the inhibitory constant (Ki) is 0.2 µM in test [1], 0.7 µM in test [2], 3 µM in test [3] and 1.8 µM in test [4].

`Cc1cccc(OCCCOc2ccc(-c3ccccc3CC(C)C(=O)NS(=O)(=O)c3cccs3)cc2)c1` (configuration not stated): the inhibition constant (Ki) in test [1] turned out to be 0.34 µM; in test [2], 1.1 µM; in test [3], 5.8 µM; in test [4] it was 2.9 µM.

As to `Cc1cccc(OCCCOc2ccc(-c3ccccc3CC(C)(C)C(=O)NS(=O)(=O)c3cccs3)cc2)c1`, the inhibition constant Ki in test [1] worked out at 0.44 µM; in test [2] it was 1 µM; in test [3], 1.8 µM; in test [4], 2.9 µM.

Regarding `O=C(CCc1ccccc1-c1cccc(/C=C/c2ccc3ccc(Cl)cc3n2)c1)NS(=O)(=O)c1cccs1`, the Ki was found to be 0.12 µM in test [1], 19 µM in test [2], 49 µM in test [3] and 16 µM in test [4].

For the compound `O=C(CCc1ccccc1-c1ccccc1CSCCc1ccccc1)NS(=O)(=O)c1cccs1`, the inhibition constant (Ki) in test [1] worked out at 0.51 µM; in test [2] it was 1.5 µM; in test [3], 0.083 µM; in test [4] it was 3.8 µM.

As to `Cc1cccc(OCCCOc2ccc(-c3ccccc3CCC(=O)NS(=O)(=O)c3cccs3)cc2)c1`, the inhibition constant (Ki) is 0.053 µM in test [1], 1.6 µM in test [2], 4.6 µM in test [3] and 2.9 µM in test [4].

Consider `O=S(=O)(CCc1ccccc1-c1ccc(CSCCc2ccccc2)cc1)NS(=O)(=O)c1cccs1`, for which the Ki came out at 0.61 µM in test [1], 1.1 µM in test [2], 7.5 µM in test [3] and 3 µM in test [4].

On to `Cc1cccc(OCCCOc2ccc(-c3ccccc3CNC(=O)NS(=O)(=O)c3cccs3)cc2)c1`, for which the Ki amounted to 0.15 µM in test [1], 2.9 µM in test [2], 15 µM in test [3] and 8.6 µM in test [4].

For the compound `O=C(O)CCc1ccccc1-c1ccc(CSCCc2ccccc2)cc1`, the Ki in test [1] was determined as 0.74 µM; in test [2], 4.4 µM; in test [3], 8.6 µM; in test [4], 0.14 µM.

Take `O=C(CCc1ccccc1-c1ccc(OCCCOc2cccc(CSCCc3ccccc3)c2)cc1)NS(=O)(=O)c1cccs1`: the Ki in test [1] came to 0.016 µM; in test [2], 7.1 µM; in test [3], 13 µM; in test [4], 4.9 µM.

For the compound `O=C(Cc1ccccc1-c1ccc(CSCCc2ccccc2)cc1)NS(=O)(=O)c1cccs1`, the inhibition constant Ki in test [1] is 0.33 µM; in test [2] it was 0.85 µM; in test [3] it was 3.7 µM; in test [4], 0.59 µM.

On to `O=C(NS(=O)(=O)CCc1ccccc1-c1ccc(CSCCc2ccccc2)cc1)c1cccs1`, for which the Ki in test [1] turned out to be 0.48 µM; in test [2], 0.69 µM; in test [3], 2.8 µM; in test [4], 2.5 µM.

As for `CSc1cccc(-c2ccccc2CCC(=O)NS(=O)(=O)c2cccs2)c1`, the Ki came to 0.24 µM in test [1], 25 µM in test [2], 27 µM in test [3] and 31 µM in test [4].
